Source: PubChem BioAssay (NCI)
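Five concentrations, 48 hours, 96-well plates. GI50 = concentration required for 50% inhibition of growth. TGI: total growth inhibition.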

Key:
Assay in all cases: NCI tumour cell line growth inhibition, 48 h
OVCAR-8 ovarian = system: OVCAR-8 ovarian
HT29 colon = system: HT29 colon
MOLT-4 leukemia = system: MOLT-4 leukemia
SK-MEL-5 melanoma = system: SK-MEL-5 melanoma
HL-60(TB) leukemia = system: HL-60(TB) leukemia
CCRF-CEM leukemia = system: CCRF-CEM leukemia
ACHN renal = system: ACHN renal
SNB-75 CNS = system: SNB-75 CNS
HCT-116 colon = system: HCT-116 colon
SF-295 CNS = system: SF-295 CNS
CAKI-1 renal = system: CAKI-1 renal
IGROV1 ovarian = system: IGROV1 ovarian
M14 melanoma = system: M14 melanoma
PC-3 prostate = system: PC-3 prostate
COLO 205 colon = system: COLO 205 colon
NCI/ADR-RES ovarian = system: NCI/ADR-RES ovarian
T-47D breast = system: T-47D breast
A498 renal = system: A498 renal
A549 NSCLC = system: A549 NSCLC
HOP-92 NSCLC = system: HOP-92 NSCLC
OVCAR-3 ovarian = system: OVCAR-3 ovarian
MALME-3M melanoma = system: MALME-3M melanoma
SF-539 CNS = system: SF-539 CNS
SK-OV-3 ovarian = system: SK-OV-3 ovarian
DU-145 prostate = system: DU-145 prostate
SW-620 colon = system: SW-620 colon
UACC-257 melanoma = system: UACC-257 melanoma
UACC-62 melanoma = system: UACC-62 melanoma
U251 CNS = system: U251 CNS
HOP-62 NSCLC = system: HOP-62 NSCLC
NCI-H23 lung = system: NCI-H23 lung
SR leukemia = system: SR leukemia
MDA-MB-435 = system: MDA-MB-435
OVCAR-5 ovarian = system: OVCAR-5 ovarian
MCF7 breast = system: MCF7 breast
UO-31 renal = system: UO-31 renal
RPMI-8226 leukemia = system: RPMI-8226 leukemia
SK-MEL-28 melanoma = system: SK-MEL-28 melanoma
LOX IMVI melanoma = system: LOX IMVI melanoma
NCI-H522 lung = system: NCI-H522 lung
SNB-19 CNS = system: SNB-19 CNS
HS 578T breast = system: HS 578T breast
SK-MEL-2 melanoma = system: SK-MEL-2 melanoma
SN12C renal = system: SN12C renal
HCT-15 colon = system: HCT-15 colon
TK-10 renal = system: TK-10 renal
SF-268 CNS = system: SF-268 CNS
EKVX NSCLC = system: EKVX NSCLC
HCC-2998 colon = system: HCC-2998 colon
NCI-H460 lung = system: NCI-H460 lung
BT-549 breast = system: BT-549 breast
KM12 colon = system: KM12 colon
MDA-MB-231 breast = system: MDA-MB-231 breast
786-0 renal = system: 786-0 renal
K-562 leukemia = system: K-562 leukemia
OVCAR-4 ovarian = system: OVCAR-4 ovarian

COc1ccc(/C=C\c2cc(OC)c(OC)c(OC)c2)c(NS(=O)(=O)c2ccc(C)cc2)c1O
GI50 (OVCAR-8 ovarian): 49.8 nM
TGI (OVCAR-8 ovarian): > 100000 nM
GI50 (HT29 colon): 813 nM
TGI (HT29 colon): > 45700 nM
GI50 (MOLT-4 leukemia): 42.1 nM
TGI (MOLT-4 leukemia): > 62900 nM
GI50 (SK-MEL-5 melanoma): 35.9 nM
TGI (SK-MEL-5 melanoma): 195 nM
GI50 (HL-60(TB) leukemia): 33.8 nM
TGI (HL-60(TB) leukemia): 2060 nM
GI50 (CCRF-CEM leukemia): 40.7 nM
TGI (CCRF-CEM leukemia): > 100000 nM
GI50 (ACHN renal): 87.4 nM
TGI (ACHN renal): > 59900 nM
GI50 (SNB-75 CNS): 30.4 nM
TGI (SNB-75 CNS): > 100000 nM
GI50 (HCT-116 colon): 35.7 nM
TGI (HCT-116 colon): > 100000 nM
GI50 (SF-295 CNS): 50.9 nM
GI50 (CAKI-1 renal): 93.8 nM
TGI (CAKI-1 renal): > 100000 nM
GI50 (IGROV1 ovarian): 75 nM
TGI (IGROV1 ovarian): > 100000 nM
GI50 (M14 melanoma): 30.7 nM
TGI (M14 melanoma): > 33200 nM
GI50 (PC-3 prostate): 40 nM
TGI (PC-3 prostate): > 100000 nM
GI50 (COLO 205 colon): 723 nM
TGI (COLO 205 colon): 3890 nM
GI50 (NCI/ADR-RES ovarian): 169 nM
TGI (NCI/ADR-RES ovarian): 14700 nM
GI50 (T-47D breast): 21000 nM
TGI (T-47D breast): > 100000 nM
GI50 (A498 renal): 22 nM
TGI (A498 renal): 80.5 nM
GI50 (A549 NSCLC): 47.3 nM
TGI (A549 NSCLC): > 100000 nM
GI50 (HOP-92 NSCLC): 102 nM
TGI (HOP-92 NSCLC): 27500 nM
GI50 (OVCAR-3 ovarian): 30 nM
TGI (OVCAR-3 ovarian): 1650 nM
GI50 (MALME-3M melanoma): 16800 nM
TGI (MALME-3M melanoma): > 100000 nM
GI50 (SF-539 CNS): 23.7 nM
TGI (SF-539 CNS): 64.1 nM
GI50 (SK-OV-3 ovarian): 685 nM
TGI (SK-OV-3 ovarian): > 100000 nM
GI50 (DU-145 prostate): 39.9 nM
GI50 (SW-620 colon): 44.7 nM
TGI (SW-620 colon): > 100000 nM
GI50 (UACC-257 melanoma): 17800 nM
TGI (UACC-257 melanoma): > 100000 nM
GI50 (UACC-62 melanoma): 42.8 nM
TGI (UACC-62 melanoma): > 100000 nM
GI50 (U251 CNS): 41.8 nM
TGI (U251 CNS): > 100000 nM
GI50 (HOP-62 NSCLC): 1290 nM
TGI (HOP-62 NSCLC): > 100000 nM
GI50 (NCI-H23 lung): 45.1 nM
TGI (NCI-H23 lung): 49600 nM
GI50 (SR leukemia): 31 nM
TGI (SR leukemia): > 51500 nM
GI50 (MDA-MB-435): 20.8 nM
TGI (MDA-MB-435): 62.1 nM
GI50 (OVCAR-5 ovarian): 150 nM
TGI (OVCAR-5 ovarian): > 100000 nM
GI50 (MCF7 breast): 33.3 nM
TGI (MCF7 breast): > 39200 nM
GI50 (UO-31 renal): 335 nM
TGI (UO-31 renal): > 65800 nM
GI50 (RPMI-8226 leukemia): 50.2 nM
TGI (RPMI-8226 leukemia): 23900 nM
GI50 (SK-MEL-28 melanoma): 602 nM
TGI (SK-MEL-28 melanoma): > 96200 nM
GI50 (LOX IMVI melanoma): 50.9 nM
TGI (LOX IMVI melanoma): > 100000 nM
GI50 (NCI-H522 lung): 37.7 nM
TGI (NCI-H522 lung): > 35000 nM
GI50 (SNB-19 CNS): 54.9 nM
TGI (SNB-19 CNS): > 100000 nM
GI50 (HS 578T breast): 48.3 nM
TGI (HS 578T breast): > 100000 nM
GI50 (SK-MEL-2 melanoma): 1450 nM
TGI (SK-MEL-2 melanoma): > 100000 nM
GI50 (SN12C renal): 73.6 nM
TGI (SN12C renal): > 76200 nM
GI50 (HCT-15 colon): 39.5 nM
TGI (HCT-15 colon): > 81600 nM
GI50 (TK-10 renal): 3800 nM
TGI (TK-10 renal): > 100000 nM
GI50 (SF-268 CNS): 226 nM
TGI (SF-268 CNS): > 91500 nM
GI50 (EKVX NSCLC): 64.4 nM
TGI (EKVX NSCLC): > 100000 nM
GI50 (HCC-2998 colon): 90.4 nM
TGI (HCC-2998 colon): 10900 nM
GI50 (NCI-H460 lung): 35.1 nM
TGI (NCI-H460 lung): > 37900 nM
GI50 (BT-549 breast): 35 nM
TGI (BT-549 breast): 3040 nM
GI50 (KM12 colon): 38.3 nM
GI50 (MDA-MB-231 breast): 51.6 nM
TGI (MDA-MB-231 breast): 29900 nM
GI50 (786-0 renal): 129 nM
TGI (786-0 renal): 30200 nM
GI50 (K-562 leukemia): 40.9 nM
TGI (K-562 leukemia): > 100000 nM
GI50 (OVCAR-4 ovarian): 233 nM
TGI (OVCAR-4 ovarian): > 100000 nM
